Reference: PubChem BioAssay AID1963971 (Molecular Pharmacology Branch, DTP, NCI, 2024)
Several values for one entry are separate records, joined by “and”; a condition that tells them apart may be missing. Equal values may be shown once.

Tested on: 953936-095-R-J2-PDC spheroids with HUVEC/MSC, viability
Assay: Anticancer human tumor 953936-095-R-J2-PDC patient-derived cervical squamous cell carcinoma cell line growth inhibition [PI3K]
Details: for viability, T/C: stronger effect = lower value
Method in brief: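 High-throughput combination screen: PI3K inhibitors crossed with targeted small molecules on complex spheroids of tumor cells, HUVEC and MSCs at 37 degrees C, 5% CO2. Top concentration was at or near clinical Cmax (otherwise 10 microM), with half-log decrements.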

[1] = curve of first compound, second compound 0.0316 µM
[2] = curve of first compound, second compound 0.1 µM
[3] = curve of first compound, second compound 0.316 µM
[4] = curve of first compound, second compound 1 µM
[5] = second compound 0.0316 µM, first compound 0.0316 µM
[6] = second compound 0.0316 µM, first compound 0.1 µM
[7] = second compound 0.0316 µM, first compound 0.316 µM
[8] = second compound 0.0316 µM, first compound 1 µM
[9] = second compound 0.0316 µM, first compound 3.16 µM
[10] = second compound 0.0316 µM, first compound 10 µM
[11] = second compound 0.1 µM, first compound 0.0316 µM
[12] = second compound 0.1 µM, first compound 0.1 µM
[13] = second compound 0.1 µM, first compound 0.316 µM
[14] = second compound 0.1 µM, first compound 1 µM
[15] = second compound 0.1 µM, first compound 3.16 µM
[16] = second compound 0.1 µM, first compound 10 µM
[17] = second compound 0.316 µM, first compound 0.0316 µM
[18] = second compound 0.316 µM, first compound 0.1 µM
[19] = second compound 0.316 µM, first compound 0.316 µM
[20] = second compound 0.316 µM, first compound 1 µM
[21] = second compound 0.316 µM, first compound 3.16 µM
[22] = second compound 0.316 µM, first compound 10 µM
[23] = second compound 1 µM, first compound 0.0316 µM
[24] = second compound 1 µM, first compound 0.1 µM
[25] = second compound 1 µM, first compound 0.316 µM
[26] = second compound 1 µM, first compound 1 µM
[27] = second compound 1 µM, first compound 3.16 µM
[28] = second compound 1 µM, first compound 10 µM
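Further: spheroids exposed to compounds for seven days before read-out.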

CCCS(=O)(=O)Nc1ccc(F)c(C(=O)c2c[nH]c3ncc(-c4ccc(Cl)cc4)cc23)c1F + CC(Nc1ncnc2nc[nH]c12)c1cc2cccc(Cl)c2c(=O)n1-c1ccccc1
IC50 [1]: 5.74 µM | IC50 [2]: 5.73 µM | IC50 [3]: 5.56 µM | IC50 [4]: 5.28 µM | IC50 (curve of first compound, second compound 3.16 µM): 5.05 µM | IC50 (curve of first compound, second compound 10 µM): 4.07 µM | viability, T/C [5]: 91.3% | viability, T/C [6]: 98.6% | viability, T/C [7]: 108% | viability, T/C [8]: 113% | viability, T/C [9]: 103% | viability, T/C [10]: 0.75% | viability, T/C [11]: 102% | viability, T/C [12]: 101% | viability, T/C [13]: 99.2% | viability, T/C [14]: 104% | viability, T/C [15]: 104% | viability, T/C [16]: 1.22% | viability, T/C [17]: 101% | viability, T/C [18]: 91.6% | viability, T/C [19]: 97% | viability, T/C [20]: 102% | viability, T/C [21]: 97.2% | viability, T/C [22]: 0.93% | viability, T/C [23]: 98.9% | viability, T/C [24]: 85.1% | viability, T/C [25]: 96.5% | viability, T/C [26]: 98.2% | viability, T/C [27]: 89.3% | viability, T/C [28]: 1.11% | viability, T/C (second compound 3.16 µM, first compound 0.0316 µM): 76.1% | viability, T/C (second compound 3.16 µM, first compound 0.1 µM): 74.6% | viability, T/C (second compound 3.16 µM, first compound 0.316 µM): 78% | viability, T/C (second compound 3.16 µM, first compound 1 µM): 101% | viability, T/C (second compound 3.16 µM, first compound 3.16 µM): 86.9% | viability, T/C (second compound 3.16 µM, first compound 10 µM): 1.48% | viability, T/C (second compound 10 µM, first compound 0.0316 µM): 59.5% | viability, T/C (second compound 10 µM, first compound 0.1 µM): 63.5% | viability, T/C (second compound 10 µM, first compound 0.316 µM): 63% | viability, T/C (second compound 10 µM, first compound 1 µM): 70.1% | viability, T/C (second compound 10 µM, first compound 3.16 µM): 63.6% | viability, T/C (second compound 10 µM, first compound 10 µM): 1.27%

C=CC(=O)N1CCN(c2nc(=O)n(-c3c(C)ccnc3C(C)C)c3nc(-c4c(O)cccc4F)c(F)cc23)C(C)C1 (stereo unspecified) + COc1c(OCCCN2CCOCC2)ccc2c3n(c(=NC(=O)c4cnc(N)nc4)nc12)CCN3
IC50 (curve of first compound, second compound 0.00316 µM): > 10 µM | IC50 (curve of first compound, second compound 0.01 µM): > 10 µM | IC50 [1]: < 0.0316 µM | IC50 [2]: < 0.0316 µM | IC50 [3]: < 0.0316 µM | IC50 [4]: < 0.0316 µM | viability, T/C (second compound 0.00316 µM, first compound 0.0316 µM): 88.7% | viability, T/C (second compound 0.00316 µM, first compound 0.1 µM): 91% | viability, T/C (second compound 0.00316 µM, first compound 0.316 µM): 108% | viability, T/C (second compound 0.00316 µM, first compound 1 µM): 106% | viability, T/C (second compound 0.00316 µM, first compound 3.16 µM): 101% | viability, T/C (second compound 0.00316 µM, first compound 10 µM): 93.1% | viability, T/C (second compound 0.01 µM, first compound 0.0316 µM): 72.8% | viability, T/C (second compound 0.01 µM, first compound 0.1 µM): 79% | viability, T/C (second compound 0.01 µM, first compound 0.316 µM): 79.3% | viability, T/C (second compound 0.01 µM, first compound 1 µM): 84% | viability, T/C (second compound 0.01 µM, first compound 3.16 µM): 89.9% | viability, T/C (second compound 0.01 µM, first compound 10 µM): 91.9% | viability, T/C [5]: 41.4% | viability, T/C [6]: 43.6% | viability, T/C [7]: 44.4% | viability, T/C [8]: 46% | viability, T/C [9]: 51.2% | viability, T/C [10]: 45.1% | viability, T/C [11]: 18.6% | viability, T/C [12]: 18.4% | viability, T/C [13]: 18.4% | viability, T/C [14]: 20.2% | viability, T/C [15]: 20.4% | viability, T/C [16]: 15.2% | viability, T/C [17]: 7.53% | viability, T/C [18]: 7.13% | viability, T/C [19]: 6.33% | viability, T/C [20]: 6.9% | viability, T/C [21]: 6.5% | viability, T/C [22]: 3.82% | viability, T/C [23]: 1.94% | viability, T/C [24]: 1.84% | viability, T/C [25]: 1.67% | viability, T/C [26]: 1.83% | viability, T/C [27]: 1.85% | viability, T/C [28]: 1.04%

CCCS(=O)(=O)Nc1ccc(F)c(C(=O)c2c[nH]c3ncc(-c4ccc(Cl)cc4)cc23)c1F
viability, T/C (compound 0.0316 µM): 94.5% [middle of 4 runs] | viability, T/C (compound 0.1 µM): 106% (2×) and 102% and 103% | viability, T/C (compound 0.316 µM): 113% [middle of 4 runs] | viability, T/C (compound 1 µM): 113% [middle of 4 runs] | viability, T/C (compound 3.16 µM): 105% [middle of 4 runs] | viability, T/C (compound 10 µM): 1.33% [middle of 4 runs] | IC50 (curve of compound): 5.69 µM [middle of 4 runs]
